Patent US20230293526A1, “METHOD FOR TREATING CANCER WITH A REVERSE TRANSCRIPTASE INHIBITOR” (PrimeFour Therapeutics, Inc., priority 2020, published 2023)

Key:
Test in all cases: Cell proliferation Ex.3
Type in all cases: cell-based
786O = details: Homo sapiens
DLD1 = details: Homo sapiens, DLD-1
PLCPRF5 = details: Homo sapiens, PLC-PRF-5
HT29 = details: Homo sapiens, HT-29
COLO205 = details: Homo sapiens, COLO 205
OVCAR4 = details: Homo sapiens, OVCAR-4
HCT116 = details: Homo sapiens, HCT-116
TE671 = details: Homo sapiens, TE-671
JIMT1 = details: Homo sapiens, JIMT-1
SU-DHL-6 = details: Homo sapiens
ACHN = details: Homo sapiens
PANC1 = details: Homo sapiens, PANC-1
EFO21 = details: Homo sapiens, EFO-21
MHHES1 = details: Homo sapiens, MHH-ES-1
HEPG2 = details: Homo sapiens
JAR = system: JAR
UMUC3 = details: Homo sapiens
SW620 = details: Homo sapiens, SW-620
GRANTA-519 = details: Homo sapiens
A549 = details: Homo sapiens
MDAMB435 = details: Homo sapiens, MDA-MB-435
SKLMS1 = details: Homo sapiens, SK-LMS-1
CALU6 = details: Homo sapiens, Calu-6
A2780 = details: Homo sapiens
HS578T = details: Homo sapiens, Hs-578T
THP-1 = details: Homo sapiens

IC50 (DLD1; DLD1, 72 h): > 10 µM
IC50 (DLD1; DLD1, 120 h): > 10 µM
IC50 (DLD1; DLD1, 168 h): > 10 µM
IC50 (HT29; HT29, 72 h): > 10 µM
IC50 (HT29; HT29, 120 h): > 10 µM
IC50 (HT29; HT29, 168 h): > 10 µM
IC50 (COLO205; COLO205, 72 h): > 10 µM
IC50 (COLO205; COLO205, 120 h): 1.15 µM
IC50 (COLO205; COLO205, 168 h): 0.87 µM
IC50 (OVCAR4; OVCAR4, 72 h): > 10 µM
IC50 (OVCAR4; OVCAR4, 120 h): > 10 µM
IC50 (OVCAR4; OVCAR4, 168 h): > 10 µM
IC50 (HCT116; HCT116, 72 h): > 10 µM
IC50 (HCT116; HCT116, 120 h): > 10 µM
IC50 (HCT116; HCT116, 168 h): > 10 µM
IC50 (SU-DHL-6; SU-DHL-6, 72 h): > 10 µM
IC50 (SU-DHL-6; SU-DHL-6, 120 h): 4.99 µM
IC50 (SU-DHL-6; SU-DHL-6, 168 h): 1.3 µM
IC50 (ACHN; 72 h): > 10 µM
IC50 (ACHN; 120 h): 0.91 µM
IC50 (ACHN; 168 h): 0.94 µM
IC50 (PANC1; PANC1, 72 h): > 10 µM
IC50 (PANC1; PANC1, 120 h): > 10 µM
IC50 (PANC1; PANC1, 168 h): > 10 µM
IC50 (HEPG2; HepG2, 72 h): > 10 µM
IC50 (HEPG2; HepG2, 120 h): > 10 µM
IC50 (HEPG2; HepG2, 168 h): > 10 µM
IC50 (SW620; SW620, 72 h): > 10 µM
IC50 (SW620; SW620, 120 h): > 10 µM
IC50 (SW620; SW620, 168 h): > 10 µM
IC50 (A549; A549, 72 h): > 10 µM
IC50 (A549; A549, 120 h): > 10 µM
IC50 (A549; A549, 168 h): > 10 µM
IC50 (MDAMB435; MDAMB435, 72 h): > 10 µM
IC50 (MDAMB435; MDAMB435, 120 h): > 10 µM
IC50 (MDAMB435; MDAMB435, 168 h): > 10 µM
IC50 (SKLMS1; SKLMS1, 72 h): > 10 µM
IC50 (SKLMS1; SKLMS1, 120 h): > 10 µM
IC50 (SKLMS1; SKLMS1, 168 h): > 10 µM
IC50 (CALU6; CALU6, 72 h): > 10 µM
IC50 (CALU6; CALU6, 120 h): > 10 µM
IC50 (CALU6; CALU6, 168 h): > 10 µM
IC50 (A2780; A2780, 72 h): > 10 µM
IC50 (A2780; A2780, 120 h): > 10 µM
IC50 (A2780; A2780, 168 h): > 10 µM
IC50 (THP-1; THP-1, 72 h): > 10 µM
IC50 (THP-1; THP-1, 120 h): > 10 µM
IC50 (THP-1; THP-1, 168 h): > 10 µM
SMILES: C#C[C@]1(CO)O[C@@H](n2cc(F)c(N)nc2=O)C[C@@H]1O [compound 9]
IC50 (786O; 786-0, 72 h): > 10 µM
IC50 (786O; 786-0, 120 h): > 10 µM
IC50 (786O; 786-0, 168 h): > 10 µM
IC50 (PLCPRF5; PLCPRF5, 72 h): > 10 µM
IC50 (PLCPRF5; PLCPRF5, 120 h): > 10 µM
IC50 (PLCPRF5; PLCPRF5, 168 h): > 10 µM
IC50 (TE671; TE671, 72 h): > 10 µM
IC50 (TE671; TE671, 120 h): > 10 µM
IC50 (TE671; TE671, 168 h): > 10 µM
IC50 (JIMT1; JIMT1, 72 h): > 10 µM
IC50 (JIMT1; JIMT1, 120 h): > 10 µM
IC50 (JIMT1; JIMT1, 168 h): > 10 µM
IC50 (EFO21; EFO21, 72 h): > 10 µM
IC50 (EFO21; EFO21, 120 h): > 10 µM
IC50 (EFO21; EFO21, 168 h): > 10 µM
IC50 (MHHES1; MHHES1, 72 h): > 10 µM
IC50 (MHHES1; MHHES1, 120 h): > 10 µM
IC50 (MHHES1; MHHES1, 168 h): > 10 µM
IC50 (JAR; 72 h): > 10 µM
IC50 (JAR; 120 h): > 10 µM
IC50 (JAR; 168 h): > 10 µM
IC50 (UMUC3; UMUC3, 72 h): > 10 µM
IC50 (UMUC3; UMUC3, 120 h): > 10 µM
IC50 (UMUC3; UMUC3, 168 h): > 10 µM
IC50 (GRANTA-519; Granta-519, 72 h): 4.98 µM
IC50 (GRANTA-519; Granta-519, 120 h): 0.24 µM
IC50 (GRANTA-519; Granta-519, 168 h): 0.35 µM
IC50 (HS578T; 72 h): > 10 µM
IC50 (HS578T; 120 h): > 10 µM
IC50 (HS578T; 168 h): > 10 µM
